From US10940216B2, “Cyclic peptides with enhanced nerve-binding selectively, nanoparticles bound with said cyclic peptides, and use of same for real-time in vivo nerve tissue imaging” (Memorial Sloan Kettering Cancer Center, priority 2014, dated 2021)
Ends that are not written are not given here.

Assays:
[1] = Characterization of NBP-Cy5 conjugates and linear NBP-C′ dots by fluorescence correlation spectroscopy (FCS); type: physicochemical
Procedure: Similarly, cyclic peptide(s) can be bound to nanoparticles for improved quantum enhancement and FCS brightness over the non-bound cyclic peptide.
Measurements were determined from fluorescence correlation spectroscopy (FCS).
The linear nerve binding polypeptide (NBP) NP41 was incorporated onto C′ dots using a PEG linker moiety.

[2] = system: sciatic nerve; experiment: In vivo optical imaging of sciatic nerve and adjacent muscle after iv injection of peptide-dye conjugates; conditions: nude mouse; for fluorescence signal at 30 min as percentage of post-injection/initial signal: 150 nmole iv
Procedure: FIGS. 13A-13E show in vivo time-dependent uptake from sciatic nerve and muscle post-iv injection of 17 AA cyclic peptide-dye conjugates using optical imaging. 17 AA cyclic peptide-dye conjugates (Cy5 labeled) were injected intravenously (400 nmole) into the tail veins of nude mouse prior to surgical exposure and imaging of sciatic nerves and adjacent muscle using a Zeiss Lumar stereomicroscope (0.8× objective) with fluorescence imaging capabilities. Pre- and serial post injection (p.i.) images (bright field, fluorescent) were acquired at 8 times points from 15 min to 240 min p.i. Bars indicate mean+/−standard deviation. N=5 per group. Each replicate is from one biological experiment, quantified with five independent fields of view. Region of interest (ROI) analysis was performed over nerve and muscle regions to assess time-dependent signal changes. FIGS. 13A-13E show the absolute and relative fluorescence signal (e.g., percentage of the initial fluorescence signal acquired at 15 min p.i.) of nerves (FIGS. 13A and […]) and adjacent muscle (FIGS. 13B and 13D), respectively.
FIGS. 14A and 14B show in vivo time-dependent uptake from sciatic nerve and muscle post-iv injection of 17 AA linear peptide-dye conjugates using optical imaging. 17 AA linear peptide-dye conjugates (Cy5 labeled) were injected intravenously (150 nmole) into the tail veins of nude mouse prior to surgical exposure and imaging of sciatic nerves and adjacent muscle using a Zeiss Lumar stereomicroscope (0.8× objective) with fluorescence imaging capabilities. Pre- and serial post injection (p.i.) images (bright field, fluorescent) were acquired at 6 times points (15 min-150 min) p.i. Bars indicate mean+/−standard deviation. N=5 per group.
FIGS. 16A-16E show in vivo time-dependent uptake from sciatic nerve and muscle post-iv injection of 17 AA cyclic peptide-dye conjugates using optical imaging. 17 AA cyclic peptide-dye conjugates (Cy5 labeled) were injected intravenously (150 nmole) into the tail veins of nude mouse prior to surgical exposure and imaging of sciatic nerves and adjacent muscle using a Zeiss Lumar stereomicroscope (0.8× objective) with fluorescence imaging capabilities. Pre- and serial post injection (p.i.) images (bright field, fluorescent) were acquired at 6 time points (15 min-150 min) p.i. Bars indicate mean+/−standard deviation. N=5 per group. Each replicate is from one biological experiment, quantified with five independent fields of view. Region of interest (ROI) analysis was performed over nerve and muscle regions to assess time-dependent signal changes. FIGS. 16A-16D show the absolute and relative fluorescence signal (percentage of the initial fluorescence signal acquired at 15 min p.i.) of nerves (FIGS. 16A and 16C) and adjacent muscle (FIGS. 16B and 16D), respectively.

Compound: CCN1/C(=C/C=C/C=C/C2=[N+](CCCCCC(=O)O)c3ccc(S(=O)(=O)O)cc3C2(C)C)C(C)(C)c2cc(S(=O)(=O)[O-])ccc21 [Cy5]
- # of Cy5 per particles [1]: 1
- Hydrodynamic Diameter [1]: 1.4 nm
- PCS Brightness [1]: 9.2 kHz
- Quantum Enhancement [1]: 1

Compound: Ac-SHSNTQTLAKAPEHTGC (also: Cy5 label, site not given here) [LinearNBP-Cy5]
- # of Cy5 per particles [1]: 1
- # of NBP per particles [1]: 1
- Hydrodynamic Diameter [1]: 2.4 nm
- PCS Brightness [1]: 8.9 kHz
- Quantum Enhancement [1]: 0.9
- fluorescence signal at 30 min as percentage of post-injection/initial signal ([2]; listed as 17 AA linear peptide-dye conjugates): about 15%
- fluorescence signal at 30 min as percentage of post-injection/initial signal ([2]; listed as linear peptide): 10%
- duration of detectable signal after administration (in words) ([2]; iv): barely perceptible thereafter
- nerve-to-muscle or contrast ratios over time (in words) ([2]; iv, listed as linear peptide): does not demonstrate as high ratios
- nerve-to-muscle or contrast ratios over time (in words) ([2]; iv, listed as linear peptide-dye conjugate): roughly equivalent over the first 30 min
